Laboratory results reported in patent US12459951B2, “Compounds that interact with RAS superfamily proteins for treatment of cancers, inflammatory diseases, rasopathies, and fibrotic disease” (SHY Therapeutics, LLC, priority 2022, dated 2025).

Tested on: Erk1/2 phosphorylation
Test: Erk1/2 Phosphorylation Assay (western blot), Panc-1
Assay type: cell-based, human
Settings: at 10 μM, * = activation
Method: Protocol for Western Erk1/2 Cell-Based Phosphorylation Assay
This assay is referred to as the “Erk1/2 Phosphorylation Assay” throughout this application.
Cell lines: Human tumor-derived pancreatic cancer cell line Panc-1 (expressing KRas G12D mutant) was purchased from American Type Culture Collection and grown in complete DMEM-High Glucose medium, supplemented with penicillin (100 U/mL), streptomycin (100 μg/mL), and 10% heat-inactivated FBS at 37° C. in a humidified incubator with 5% CO2.
Method 1: Cells were plated at 350000 cells/well density in a 12-well plate, allowed 3 hours to adhere to the plate, then starved in the appropriate medium in the presence of 0.5% FBS overnight. The small molecules to be tested were added to the cells in the final concentration of 10 μM in the presence of 0.3% DMSO for 6 hours incubation at 37° C. For IC50 value determination, serial dilutions of compounds were added to cells under the same conditions. Next, cells were stimulated with 1.5 ng/ml EGF for 15 minutes then cells were lysed with lysis buffer containing 1% Triton X-100, EDTA, and Halt™ Protease & Phosphatase Inhibitor Cocktail (Thermo Scientific). Protein concentration was assessed by BCA protein assay (Thermo Scientific). Phosphorylation level of Erk1/2 was determined by western blot.
Method 2: Cells were plated at 350000 cells/well density in a 12-well plate in 10% FBS. The next day small molecules to be tested were added to the cells in the final concentration of 10 μM in the presence of 0.3% DMSO for 6 hours incubation at 37° C. For IC50 value determination, serial dilutions of compounds were added to cells under the same conditions. Next, cells were lysed with lysis buffer containing 1% Triton X-100, EDTA, and Halt™ Protease & Phosphatase Inhibitor Cocktail (Thermo Scientific). Protein concentration was assessed by BCA protein assay (Thermo Scientific). Phosphorylation level of Erk1/2 was determined by western blot.
Western blot protocol: Equal amounts of protein (15-50 μg) were separated by SDS-PAGE and transferred to nitrocellulose membranes (Invitrogen by Thermo Fisher Scientific). The membrane was stained with Ponceau S Stain (Boston BioProducts) to verify uniform protein loading. Membranes were blocked with 10% milk and phosphorylation levels of Erk1/2 were assessed by incubating overnight at 4° C. with anti-phospho-p44/42 (Thr202/Tyr204) antibody (Cell Signaling) followed by HRP-conjugated secondary antibody (Jackson Immunoresearch, West Grove, PA). Bands were incubated in Amersham ECL Prime Western Blotting Detection Reagent (GE Healthcare) and visualized using the ChemiDoc MP imaging system (Bio-Rad).

Row | Compound | % inh of Erk1/2 phosphorylation in Panc-1
1 | Cc1c(-c2ccn(C3CC3)n2)cn2nc(-c3nccn3C)nc(Nc3cc(OCCCN(C)C)ccn3)c12 [Compound 148, 6-(1-Cyclopropyl-1H-pyrazol-3-yl)-N-(4-(3-(dimethylamino)propoxy)pyridin-2-yl)-5-methyl-2-(1-methyl-1H-imidazol-2-yl)pyrrolo[2,1-f][1,2,4]triazin-4-amine] | C* (46-84% activation)
2 | CCc1nc(Nc2nc(-c3nccn3C)nn3cc(-c4ccn(C)n4)c(C)c23)nn1C [Compound 108, N-(5-Ethyl-1-methyl-1H-1,2,4-triazol-3-yl)-5-methyl-2-(1-methyl-1H-imidazol-2-yl)-6-(1-methyl-1H-pyrazol-3-yl)pyrrolo[2,1-f][1,2,4]triazin-4-amine] | A* (1-25% activation)
3 | COc1ccnc(Nc2nc(-c3nccn3C)nn3cc(-c4cnn(C(C)C)c4)c(C)c23)c1 [Compound 165, 6-(1-Isopropyl-1H-pyrazol-4-yl)-N-(4-methoxypyridin-2-yl)-5-methyl-2-(1-methyl-1H-imidazol-2-yl)pyrrolo[2,1-f][1,2,4]triazin-4-amine] | C* (46-84% activation)
4 | COCCO[C@H]1C[C@H](Nc2nc(-c3nccn3C)nn3cc(-c4ccn(C)n4)c(C)c23)C1 [Compound 130, N-((1r,3r)-3-(2-Methoxyethoxy)cyclobutyl)-5-methyl-2-(1-methyl-1H-imidazol-2-yl)-6-(1-methyl-1H-pyrazol-3-yl)pyrrolo[2,1-f][1,2,4]triazin-4-amine] | B* (26-49% activation)
5 | CO[C@H]1C[C@H](Nc2nc(-c3nccn3C)nn3cc(-c4ccncc4)c(C)c23)C1 [Compound 159, N-((1r,3r)-3-Methoxycyclobutyl)-5-methyl-2-(1-methyl-1H-imidazol-2-yl)-6-(pyridin-4-yl)pyrrolo[2,1-f][1,2,4]triazin-4-amine] | A (1-25% inhibition)
6 | CO[C@@H]1CC[C@@H](Nc2nc(-c3nccn3C)nn3cc(-c4cccnc4)c(C)c23)C1 (racemic) [Compound 154, rac N-((1R,3R)-3-methoxy-cyclopentyl)-5-methyl-2-(1-methyl-1H-imidazol-2-yl)-6-(pyridin-3-yl)pyrrolo[2,1-f][1,2,4]triazin-4-amine] | C* (46-84% activation)
7 | COCCO[C@H]1C[C@H](Nc2nc(-c3nccn3C)nn3cc(-c4ccnc(OC)c4)c(C)c23)C1 [Compound 161, N-((1r,3r)-3-(2-Methoxy-ethoxy)cyclo-butyl)-6-(2-methoxy-pyridin-4-yl)-5-methyl-2-(1-methyl-1H-imidazol-2-yl)pyrrolo[2,1-f][1,2,4]triazin-4-amine] | A (1-25% inhibition)
8 | COc1cncnc1Nc1nc(-c2nccn2C)nn2cc(-c3ccn(C)n3)c(C)c12 [Compound 107, N-(5-Methoxypyrimidin-4-yl)-5-methyl-2-(1-methyl-1H-imidazol-2-yl)-6-(1-methyl-1H-pyrazol-3-yl)pyrrolo[2,1-f][1,2,4]triazin-4-amine] | D* (85-100% activation)
9 | COc1cc(-c2cn3nc(-c4nccn4C)nc(N[C@@H]4CC[C@H](OC)C4)c3c2C)ccn1 (racemic) [Compound 164, rac N-((1R,3S)-3-Methoxycyclopentyl)-6-(2-methoxypyridin-4-yl)-5-methyl-2-(1-methyl-1H-imidazol-2-yl)pyrrolo[2,1-f][1,2,4]triazin-4-amine] | A* (1-25% activation)
10 | COCCOc1cc(Nc2nc(-c3nccn3C)nn3cc(-c4ccn(C(C)C)n4)c(C)c23)ncn1 [Compound 122, 6-(1-Isopropyl-1H-pyrazol-3-yl)-N-(6-(2-methoxyethoxy)pyrimidin-4-yl)-5-methyl-2-(1-methyl-1H-imidazol-2-yl)pyrrolo[2,1-f][1,2,4]triazin-4-amine] | A* (1-25% activation)
11 | Cc1c(-c2ccn(C)n2)cn2nc(-c3nccn3C)nc(Nc3nnco3)c12.Cl [Compound 119, N-(5-Methyl-2-(1-methyl-1H-imidazol-2-yl)-6-(1-methyl-1H-pyrazol-3-yl)pyrrolo[2,1-f][1,2,4]triazin-4-yl)-1,3,4-oxadiazol-2-amine hydrochloride salt] | A* (1-25% activation)
12 | COc1cc(-c2cn3nc(-c4nccn4C)nc(N[C@H]4C[C@H](OC)C4)c3c2C)ccn1 [Compound 160, N-((1r,3r)-3-Methoxycyclobutyl)-6-(2-methoxypyridin-4-yl)-5-methyl-2-(1-methyl-1H-imidazol-2-yl)pyrrolo[2,1-f][1,2,4]triazin-4-amine] | A* (1-25% activation)
13 | Cc1c(-c2ccn(C)n2)cn2nc(-c3nccn3C)nc(Nc3cc(OCCO)ncn3)c12 [Compound 101, 2-((6-((5-Methyl-2-(1-methyl-1H-imidazol-2-yl)-6-(1-methyl-1H-pyrazol-3-yl)pyrrolo[2,1-f][1,2,4]triazin-4-yl)amino)pyrimidin-4-yl)oxy) ethan-1-ol] | A* (1-25% activation)
14 | CO[C@H]1C[C@@H](Nc2nc(-c3nccn3C)nn3cc(-c4ccn(C)n4)c(C)c23)C1 [Compound 131, N-((1s,3s)-3-Methoxycyclobutyl)-5-methyl-2-(1-methyl-1H-imidazol-2-yl)-6-(1-methyl-1H-pyrazol-3-yl)pyrrolo[2,1-f][1,2,4]triazin-4-amine] | A* (1-25% activation)
15 | Cc1c(-c2ccn(C)n2)cn2nc(-c3nccn3C)nc(Nc3nccc(OCCN(C)C)n3)c12 [Compound 105, N-(4-(2-(Dimethylamino)ethoxy)pyrimidin-2-yl)-5-methyl-2-(1-methyl-1H-imidazol-2-yl)-6-(1-methyl-1H-pyrazol-3-yl)pyrrolo[2,1-f][1,2,4]triazin-4-amine] | A (1-25% inhibition)
16 | COc1ccnc(Nc2nc(-c3nccn3C)nn3cc(-c4ccn(C)n4)c(C)c23)n1.Cl [Compound 114, N-(4-Methoxypyrimidin-2-yl)-5-methyl-2-(1-methyl-1H-imidazol-2-yl)-6-(1-methyl-1H-pyrazol-3-yl)pyrrolo[2,1-f][1,2,4]triazin-4-amine hydrochloride salt] | B* (26-49% activation)
17 | COc1ccnc(Nc2nc(-c3nccn3C)nn3cc(-c4ccn(C(F)F)n4)c(C)c23)n1 [Compound 95, 6-(1-(Difluoromethyl)-1H-pyrazol-3-yl)-N-(4-methoxypyrimidin-2-yl)-5-methyl-2-(1-methyl-1H-imidazol-2-yl)pyrrolo[2,1-f][1,2,4]triazin-4-amine] | D* (85-100% activation)
18 | Cc1c(-c2ccn(C(C)C)n2)cn2nc(-c3nccn3C)nc(Nc3cc(OCCN(C)C)ncn3)c12 [Compound 123, N-(6-(2-(Dimethylamino)ethoxy)pyrimidin-4-yl)-6-(1-isopropyl-1H-pyrazol-3-yl)-5-methyl-2-(1-methyl-1H-imidazol-2-yl)pyrrolo[2,1-f][1,2,4]triazin-4-amine] | A* (1-25% activation)
19 | COc1ccnc(Nc2nc(-c3nccn3C)nn3cc(-c4cccnc4)c(-c4cccnc4)c23)c1 [Compound 169, N-(4-methoxypyridin-2-yl)-2-(1-methyl-1H-imidazol-2-yl)-5,6-di(pyridin-3-yl)pyrrolo[2,1-f][1,2,4]triazin-4-amine] | B* (26-49% activation)
